Results from patent publication US20220370486A1, “COMBINATION TREATMENT OF SYSTEMIC FUNGAL INFECTIONS” (The Board of Trustees of the University of Illinois, priority 2019, published 2022).
Converted amounts (≈) assume the structure as drawn. Where two headings read alike, the source gives them in different places.

Tests used:
A. flavus ATCC 204304 = experiment: Checkerboard broth microdilution (CLSI); format: cell-based; settings: isolate ATCC 204304
Procedure: (§1) Isolates were tested against varying concentrations of amphotericin B and C2′epiAmB (range, 0.06 to 4 mg/L) and combined with fluconazole (range, 0.12 to 128 mg/L) or ketoconazole (range 0.008 to 8 mg/L) or voriconazole (range, 0.004 to 4 mg/L) using a checkerboard grid design following the Clinical and Laboratory Standards Institute (CLSI) broth microdilution method (M23Ed5).

A. flavus SC 1085986 = experiment: Checkerboard broth microdilution (CLSI); format: cell-based; settings: isolate 1085986
Procedure: as §1

A. fumigatus 1077391 = experiment: Checkerboard broth microdilution (CLSI); format: cell-based; settings: isolate 1077391
Procedure: as §1

[1] = system: A. fumigatus ATCC MYA-3626; experiment: Checkerboard broth microdilution (CLSI); format: cell-based; settings: isolate ATCC MYA-3626; for MIC: single agent
Procedure: as §1

C. albicans 967374 = experiment: Checkerboard broth microdilution (CLSI); format: cell-based; settings: isolate 967374
Procedure: as §1

C. auris 1081160 = experiment: Checkerboard broth microdilution (CLSI); format: cell-based; settings: isolate 1081160; for MIC: single agent
Procedure: as §1

C. glabrata 1046695 = experiment: Checkerboard broth microdilution (CLSI); format: cell-based; settings: isolate 1046695; for MIC: single agent
Procedure: as §1

C. krusei 975691 = experiment: Checkerboard broth microdilution (CLSI); format: cell-based; settings: isolate 975691
Procedure: as §1

C. krusei ATCC 6258 = experiment: Checkerboard broth microdilution (CLSI); format: cell-based; settings: isolate ATCC 6258
Procedure: as §1

C. parapsilosis 1048737 = experiment: Checkerboard broth microdilution (CLSI); format: cell-based; settings: isolate 1048737; for MIC: single agent
Procedure: as §1

[2] = system: C. parapsilosis ATCC 22019; experiment: Checkerboard broth microdilution (CLSI); format: cell-based; settings: isolate ATCC 22019
Procedure: as §1

C. tropicalis 1046709 = experiment: Checkerboard broth microdilution (CLSI); format: cell-based; settings: isolate 1046709
Procedure: as §1

F. oxysporum SC 1087597 = experiment: Checkerboard broth microdilution (CLSI); format: cell-based; settings: isolate 1087597
Procedure: as §1

F. solani SC 1047542 = experiment: Checkerboard broth microdilution (CLSI); format: cell-based; settings: isolate 1047542
Procedure: as §1

[3] = UV-Vis and PCA based sterol sponge binding assay; settings: apparent KD, sterol sponge aggregates in vitro
From the text: However, an alternative method was developed for reproducible formation of homogenous AmB and C2′epiAmB sterol sponge aggregates in vitro. Using these preparations, a quantitative UV-Vis and Principle Component (PCA) based assay for determining the apparent Kis for the binding of AmB and C2′epiAmB to ergosterol and cholesterol (FIGS. 2A-2D) was developed.

human red blood cells = experiment: Toxicity to human red blood cells; format: cell-based
From the text: This key discovery opened a path to the rational development of a non-toxic AmB variant. To probe its predicted role in sterol binding, the hydroxyl group was synthetically deleted at the C2′ position on the mycosamine appendage.
In each case, C2′epiAmB is non-toxic to human red blood cells, primary hREC, mice, and rats up to the highest dose tested.

[4] = system: Candida and Aspergillus clinical isolates; experiment: In vitro antifungal activity against clinical isolates (Evotec); format: cell-based; settings: many Candida and several Aspergillus strains
From the text: (§2) In vitro antifungal activity of C2′ epiAmB was compared with that of AmB against an extensive series of Candida and Aspergillus clinical isolates (FIG. 6A) at Evotec (Oxfordshire, UK). […] C2′epiAmB was also sent to the US national Fungus Testing Laboratory at UT-San Antonio for antifungal testing against an extended panel of especially challenging 40 Aspergillus clinical isolates, including azole-resistant A. fumigatus, A. flavus, and A. terreus (FIG. 6B).

[5] = system: 40 Aspergillus clinical isolates, including azole-resistant A. fumigatus, A. flavus, and A. terreus; experiment: Antifungal testing, Fungus Testing Laboratory UT-San Antonio; format: cell-based
From the text: as §2

Candida albicans SN250 = experiment: MIC against Candida albicans SN250; format: cell-based
[6] = Intravenous toxicity in mice; settings: up to the highest dose tested
[7] = Intravenous toxicity in rats; settings: IV, 2, 10, and 17.5 mg/kg

Compound: C[C@@H]1[C@H](O)[C@@H](C)/C=C/C=C/C=C/C=C/C=C/C=C/C=C/[C@H](OC2O[C@H](C)[C@@H](O)[C@H](N)[C@H]2O)CC2O[C@](O)(C[C@@H](O)C[C@@H](O)[C@H](O)CC[C@@H](O)C[C@@H](O)CC(=O)O[C@H]1C)C[C@H](O)[C@H]2C(=O)O (stereo partly drawn) [C2′epiAmB, C2′epi amphotericin B]
- MIC (A. flavus ATCC 204304; Aspergillus flavus, ATCC204304, single agent): 2 µg/mL
- MIC when added 1 log2 unit lower of azoles' MIC (A. flavus ATCC 204304; with ketoconazole): 2 mg/L
- MIC when added 1 log2 unit lower of azoles' MIC (A. flavus ATCC 204304; with voriconazole): 1 mg/L
- MIC (A. flavus SC 1085986; Aspergillus flavus, single agent): 4 µg/mL
- MIC when added 1 log2 unit lower of azoles' MIC (A. flavus SC 1085986; with ketoconazole): >4 mg/L
- MIC when added 1 log2 unit lower of azoles' MIC (A. flavus SC 1085986; with voriconazole): >4 mg/L
- MIC (A. fumigatus 1077391; Aspergillus fumigatus, single agent): 4 µg/mL
- MIC when added 1 log2 unit lower of azoles' MIC (A. fumigatus 1077391; with ketoconazole): 0.06 mg/L
- MIC when added 1 log2 unit lower of azoles' MIC (A. fumigatus 1077391; with voriconazole): >4 mg/L
- MIC ([1]; Aspergillus fumigatus, read-out: MIC): > 4 µg/mL
- MIC [1]: 4 µg/mL
- MIC when added 1 log2 unit lower of azoles' MIC ([1]; with ketoconazole): 0.06 mg/L
- MIC when added 1 log2 unit lower of azoles' MIC ([1]; with voriconazole): >4 mg/L
- MIC (C. albicans 967374; Candida albicans, single agent, read-out: MIC): 2 µg/mL
- MIC when added 1 log2 unit lower of azoles' MIC (C. albicans 967374; with fluconazole): 2 mg/L
- MIC when added 1 log2 unit lower of azoles' MIC (C. albicans 967374; with ketoconazole): 1 mg/L
- MIC when added 1 log2 unit lower of azoles' MIC (C. albicans 967374; with voriconazole): 1 mg/L
- MIC (C. auris 1081160; Candidozyma auris, read-out: MIC): 2 µg/mL
- MIC (C. auris 1081160): 4 µg/mL
- MIC when added 1 log2 unit lower of azoles' MIC (C. auris 1081160; with fluconazole): 0.06 mg/L
- MIC when added 1 log2 unit lower of azoles' MIC (C. auris 1081160; with ketoconazole): 2 mg/L
- MIC when added 1 log2 unit lower of azoles' MIC (C. auris 1081160; with voriconazole): 2 mg/L
- MIC (C. glabrata 1046695; Nakaseomyces glabratus, read-out: MIC): 1 µg/mL
- MIC (C. glabrata 1046695): 2 µg/mL
- MIC when added 1 log2 unit lower of azoles' MIC (C. glabrata 1046695; with fluconazole): 2 mg/L
- MIC when added 1 log2 unit lower of azoles' MIC (C. glabrata 1046695; with ketoconazole): 1 mg/L
- MIC when added 1 log2 unit lower of azoles' MIC (C. glabrata 1046695; with voriconazole): 1 mg/L
- MIC (C. krusei 975691; Pichia kudriavzevii, single agent, read-out: MIC): 2 µg/mL
- MIC when added 1 log2 unit lower of azoles' MIC (C. krusei 975691; with fluconazole): 2 mg/L
- MIC when added 1 log2 unit lower of azoles' MIC (C. krusei 975691; with ketoconazole): 2 mg/L
- MIC when added 1 log2 unit lower of azoles' MIC (C. krusei 975691; with voriconazole): 2 mg/L
- MIC (C. krusei ATCC 6258; Pichia kudriavzevii, ATCC6258, single agent, read-out: MIC): 2 µg/mL
- MIC (C. krusei ATCC 6258; single agent): 1 µg/mL
- MIC when added 1 log2 unit lower of azoles' MIC (C. krusei ATCC 6258; with fluconazole): 2 mg/L
- MIC when added 1 log2 unit lower of azoles' MIC (C. krusei ATCC 6258; with ketoconazole): 1 mg/L
- MIC when added 1 log2 unit lower of azoles' MIC (C. krusei ATCC 6258; with voriconazole): 1 mg/L
- MIC (C. parapsilosis 1048737; Lodderomyces parapsilosis, read-out: MIC): 1 µg/mL
- MIC (C. parapsilosis 1048737): 2 µg/mL
- MIC when added 1 log2 unit lower of azoles' MIC (C. parapsilosis 1048737; with fluconazole): 1 mg/L
- MIC when added 1 log2 unit lower of azoles' MIC (C. parapsilosis 1048737; with ketoconazole): 0.5 mg/L
- MIC when added 1 log2 unit lower of azoles' MIC (C. parapsilosis 1048737; with voriconazole): 0.5 mg/L
- MIC ([2]; Lodderomyces parapsilosis, ATCC22019, single agent, read-out: MIC): 1 µg/mL
- MIC ([2]; single agent): 2 µg/mL
- MIC when added 1 log2 unit lower of azoles' MIC ([2]; with fluconazole): 1 mg/L
- MIC when added 1 log2 unit lower of azoles' MIC ([2]; with ketoconazole): 0.5 mg/L
- MIC when added 1 log2 unit lower of azoles' MIC ([2]; with voriconazole): 1 mg/L
- MIC (C. tropicalis 1046709; Candida tropicalis, single agent): 1 µg/mL
- MIC when added 1 log2 unit lower of azoles' MIC (C. tropicalis 1046709; with fluconazole): 1 mg/L
- MIC when added 1 log2 unit lower of azoles' MIC (C. tropicalis 1046709; with ketoconazole): 1 mg/L
- MIC when added 1 log2 unit lower of azoles' MIC (C. tropicalis 1046709; with voriconazole): 1 mg/L
- MIC (F. oxysporum SC 1087597; Fusarium oxysporum, single agent): > 4 µg/mL
- MIC when added 1 log2 unit lower of azoles' MIC (F. oxysporum SC 1087597; with ketoconazole): 0.06 mg/L
- MIC when added 1 log2 unit lower of azoles' MIC (F. oxysporum SC 1087597; with voriconazole): >4 mg/L
- MIC (F. solani SC 1047542; Fusarium solani, single agent): > 4 µg/mL
- MIC when added 1 log2 unit lower of azoles' MIC (F. solani SC 1047542; with ketoconazole): 0.06 mg/L
- MIC when added 1 log2 unit lower of azoles' MIC (F. solani SC 1047542; with voriconazole): >4 mg/L
- Kd ([3]; read-out: KD,chol): > 2 µM
- Kd ([3]; read-out: KD,erg): 0.15 µM
- toxicity to human red blood cells (human red blood cells): non-toxic
- in vitro antifungal activity [4]: good activity
- less potent than AmB, average ([5]; average across all 40 strains): 5.6 fold
- less potent than AmB ([5]; range over 40 Aspergillus clinical isolates): 2-16 times
- MIC (Candida albicans SN250): 0.5 µM (≈ 0.462 µg/mL)
- toxicity in mice [6]: non-toxic
- mortality [7]: no mortality
